The assay addresses T1, nanoLuc TRAP1 (Homo sapiens, UniProt Q12931).
T1 construct: expressed in transfected cells; host or cells: SHSY5Y cells, transient transfection with FuGENE HD
T1 sequence (Q12931 60-704): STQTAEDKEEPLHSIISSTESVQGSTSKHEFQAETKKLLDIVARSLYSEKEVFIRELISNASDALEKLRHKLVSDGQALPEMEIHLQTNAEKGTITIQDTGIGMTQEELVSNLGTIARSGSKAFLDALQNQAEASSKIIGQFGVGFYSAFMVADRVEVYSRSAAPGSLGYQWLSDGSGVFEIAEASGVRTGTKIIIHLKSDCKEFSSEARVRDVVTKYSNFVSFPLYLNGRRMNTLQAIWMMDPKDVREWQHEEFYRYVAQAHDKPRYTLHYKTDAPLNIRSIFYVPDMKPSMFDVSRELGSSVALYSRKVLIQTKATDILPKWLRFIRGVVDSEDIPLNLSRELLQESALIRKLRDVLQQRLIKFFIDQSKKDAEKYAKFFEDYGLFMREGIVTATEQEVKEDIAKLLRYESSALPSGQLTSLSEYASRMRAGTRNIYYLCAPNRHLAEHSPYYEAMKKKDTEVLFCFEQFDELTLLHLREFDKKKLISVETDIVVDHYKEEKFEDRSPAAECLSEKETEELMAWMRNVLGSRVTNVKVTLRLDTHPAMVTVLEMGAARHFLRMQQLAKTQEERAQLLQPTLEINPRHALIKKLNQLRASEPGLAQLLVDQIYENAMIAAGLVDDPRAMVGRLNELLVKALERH
Briefly: In-cell target engagement assay (NanoBRET) in SHSY5Y cells. It counts as cell-based. The settings on record: tracer probe-385, 1 μM; live SHSY5Y cells; FIG. 4. As for the experimental part: In-cell target engagement assays were performed as described in Robers M. B. et al. (2019) Quantitative, Real-Time Measurements of Intracellular Target Engagement Using Energy Transfer. In: Ziegler S., Waldmann H. (eds) Systems Chemical Biology. Methods in Molecular Biology, vol 1888. Humana Press, New York, N.Y.; Machleidt et al., ACS Chem. Biol. 2015, 10, 8, 1797-1804; or Vasta et al., Cell Chemical Biology 25, 206-214, Feb. 15, 2018; or as described herein.
Below is a protocol for transient transfection of SHSY5Y cells with NanoLuc® fusions. • 1. Cultivate SHSY5Y cells appropriately prior to assay in MEM w NEAA supplemented with 10% FBS. • 2. Remove medium from cell flask via aspiration, trypsinize, and allow cells to dissociate from the flask. • 3. Neutralize trypsin using growth medium and pellet cells via centrifugation at 200 g for 5 minutes. • 4. Aspirate medium and re-suspend cells into a single cell suspension using complete cell culture medium. • 5. Adjust the cell density to 300K/mL in cell culture medium in a sterile, conical tube. • 6. Prepare lipid:DNA complexes as follows (this covers two assay plates, adjust numbers for more plates) • a. Prepare a 10 μg/mL solution of DNA in Opti-MEM without serum. This solution should contain the following ratios of carrier DNA and DNA encoding NanoLuc® fusion. • i. 5.0 μg/mL of Transfection Carrier DNA (pGEM) • ii. […]
A general note: BRET reads energy transfer from a luciferase to a nearby fluorophore.

Molecules are shown by their SMILES.

On to `Cc1nn(C)c2sc(C(=O)Nc3ccc(F)c(S(=O)(=O)Nc4ccc(Cl)cc4)c3)cc12` [Compound 705], for which the “displacement of the nanoBRET tracer molecule from nanoLuc TRAP1” value is “displacing the nanoBRET tracer molecule”.

The values are drawn from patent US20230174523A1, “BENZENESULFONAMIDE DERIVATIVES AS TRAP1 MODULATORS AND USES THEREOF” (Amathus Therapeutics, Inc., priority 2020, published 2023).
